# In patent publication US12077537B2 (Gilead Sciences, Inc., priority 2020, dated 2024):
# System: HIV-IIIb
# Assay: Antiviral assay in MT4 cells
# Format: cell-based
# Settings: Human immunodeficiency virus 1, MT4, 120 h; MT-4 cells mixed with HIV-IIIb at m.o.i. 0.003; 5 days at 37° C.; CellTiter-Glo luminescence; 50% decrease in signal, a measure of HIV-1 replication
# Summary of the method: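 MT-4 cells were infected with HIV-IIIb at m.o.i. 0.003 for 1 hour, then added to 3-fold serially diluted compound (10 concentrations, quadruplicate) in medium with 10% FBS. After 5 days at 37° C, cell viability was read by CellTiter-Glo chemiluminescence.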
row,EC50 [nM],Compound
1,21.8,"Cn1nc(NS(C)(=O)=O)c2cccc(-c3cc4sc(N5CC6(CCN6)C5)nc4nc3[C@H](Cc3cc(F)cc(F)c3)NC(=O)Cn3nc(C(F)(F)F)c4c3C(F)(F)[C@@H]3C[C@H]43)c21 [Example 85, 2-((3bS,4aR)-5,5-difluoro-3-(trifluoromethyl)-3b,4,4a,5-tetrahydro-1H-cyclopropa[3,4]cyclopenta[1,2-c]pyrazol-1-yl)-N—((S)-2-(3,5-difluorophenyl)-1-(6-(1-methyl-3-(methylsulfonamido)-1H-indazol-7-yl)-2-(1,6-diazaspiro[3.3]heptan-6-yl)thiazolo[4,5-b]pyridin-5-yl)ethyl)acetamide]"
2,269,"Cn1nc(NS(C)(=O)=O)c2cccc(-c3cc4sc(N5CC6(CNC6)C5)nc4nc3[C@H](Cc3cc(F)cc(F)c3)NC(=O)Cn3nc(C(F)(F)F)c4c3C(F)(F)[C@@H]3C[C@H]43)c21 [Example 87, 2-((3bS,4aR)-5,5-difluoro-3-(trifluoromethyl)-3b,4,4a,5-tetrahydro-1H-cyclopropa[3,4]cyclopenta[1,2-c]pyrazol-1-yl)-N—((S)-2-(3,5-difluorophenyl)-1-(6-(1-methyl-3-(methylsulfonamido)-1H-indazol-7-yl)-2-(2,6-diazaspiro[3.3]heptan-2-yl)thiazolo[4,5-b]pyridin-5-yl)ethyl)acetamide]"
3,14.8,"Cn1nc(NS(C)(=O)=O)c2cccc(-c3cc4[nH]c(C5CC5)nc4nc3[C@H](Cc3cc(F)cc(F)c3)NC(=O)Cn3nc(C(F)(F)F)c4c3C(F)(F)[C@@H]3C[C@H]43)c21 [Example 92, N—((S)-1-(2-cyclopropyl-6-(1-methyl-3-(methylsulfonamido)-1H-indazol-7-yl)-1H-imidazo[4,5-b]pyridin-5-yl)-2-(3,5-difluorophenyl)ethyl)-2-((3bS,4aR)-5,5-difluoro-3-(trifluoromethyl)-3b,4,4a,5-tetrahydro-1H-cyclopropa[3,4]cyclopenta[1,2-c]pyrazol-1-yl)acetamide]"
4,11.1,"Cn1nc(NS(C)(=O)=O)c2cccc(-c3cc4[nH]c(C5CC5)nc4nc3[C@H](Cc3cc(F)cc(F)c3)NC(=O)Cn3nc(C(F)F)c4c3C(F)(F)[C@@H]3C[C@H]43)c21 [Example 93, N—((S)-1-(2-cyclopropyl-6-(1-methyl-3-(methylsulfonamido)-1H-indazol-7-yl)-1H-imidazo[4,5-b]pyridin-5-yl)-2-(3,5-difluorophenyl)ethyl)-2-((3bS,4aR)-3-(difluoromethyl)-5,5-difluoro-3b,4,4a,5-tetrahydro-1H-cyclopropa[3,4]cyclopenta[1,2-c]pyrazol-1-yl)acetamide]"
5,81.2,"Cn1nc(NS(C)(=O)=O)c2cccc(-c3cc4[nH]c(-c5ccccc5)nc4nc3[C@H](Cc3cc(F)cc(F)c3)NC(=O)Cn3nc(C(F)(F)F)c4c3C(F)(F)[C@@H]3C[C@H]43)c21 [Example 94, 2-((3bS,4aR)-5,5-difluoro-3-(trifluoromethyl)-3b,4,4a,5-tetrahydro-1H-cyclopropa[3,4]cyclopenta[1,2-c]pyrazol-1-yl)-N—((S)-2-(3,5-difluorophenyl)-1-(6-(1-methyl-3-(methylsulfonamido)-1H-indazol-7-yl)-2-phenyl-1H-imidazo[4,5-b]pyridin-5-yl)ethyl)acetamide]"
6,3.9,"Cn1nc(NS(C)(=O)=O)c2c(Cl)ccc(-c3cc4[nH]c(C5CC5)nc4nc3[C@H](Cc3cc(F)cc(F)c3)NC(=O)Cn3nc(C(F)(F)F)c4c3C(F)(F)[C@@H]3C[C@H]43)c21 [Example 96, N—((S)-1-(6-(4-chloro-1-methyl-3-(methylsulfonamido)-1H-indazol-7-yl)-2-cyclopropyl-1H-imidazo[4,5-b]pyridin-5-yl)-2-(3,5-difluorophenyl)ethyl)-2-((3bS,4aR)-5,5-difluoro-3-(trifluoromethyl)-3b,4,4a,5-tetrahydro-1H-cyclopropa[3,4]cyclopenta[1,2-c]pyrazol-1-yl)acetamide]"

# More lines, now with the values behind:
row,Compound,EC50 [nM]
1,"Cn1nc(NS(C)(=O)=O)c2cccc(-c3cc4sc(N5CCOCC5)nc4nc3[C@H](Cc3cc(F)cc(F)c3)NC(=O)Cn3nc(C(F)(F)F)c4c3C(F)(F)[C@@H]3C[C@H]43)c21 [Example 82, 2-((3bS,4aR)-5,5-difluoro-3-(trifluoromethyl)-3b,4,4a,5-tetrahydro-1H-cyclopropa[3,4]cyclopenta[1,2-c]pyrazol-1-yl)-N—((S)-2-(3,5-difluorophenyl)-1-(6-(1-methyl-3-(methylsulfonamido)-1H-indazol-7-yl)-2-morpholinothiazolo[4,5-b]pyridin-5-yl)ethyl)acetamide]",6.6
2,"Cn1nc(NS(C)(=O)=O)c2cccc(-c3cc4sc(N5CCN(C(=O)C(C)(C)N)CC5)nc4nc3[C@H](Cc3cc(F)cc(F)c3)NC(=O)Cn3nc(C(F)(F)F)c4c3C(F)(F)[C@@H]3C[C@H]43)c21 [Example 83, N—((S)-1-(2-(4-(2-amino-2-methylpropanoyl)piperazin-1-yl)-6-(1-methyl-3-(methylsulfonamido)-1H-indazol-7-yl)thiazolo[4,5-b]pyridin-5-yl)-2-(3,5-difluorophenyl)ethyl)-2-((3bS,4aR)-5,5-difluoro-3-(trifluoromethyl)-3b,4,4a,5-tetrahydro-1H-cyclopropa[3,4]cyclopenta[1,2-c]pyrazol-1-yl)acetamide]",52.3
3,"Cn1nc(NS(C)(=O)=O)c2cccc(-c3cc4sc(N5CCC6(CC5)CNC6=O)nc4nc3[C@H](Cc3cc(F)cc(F)c3)NC(=O)Cn3nc(C(F)(F)F)c4c3C(F)(F)[C@@H]3C[C@H]43)c21 [Example 84, 2-((3bS,4aR)-5,5-difluoro-3-(trifluoromethyl)-3b,4,4a,5-tetrahydro-1H-cyclopropa[3,4]cyclopenta[1,2-c]pyrazol-1-yl)-N—((S)-2-(3,5-difluorophenyl)-1-(6-(1-methyl-3-(methylsulfonamido)-1H-indazol-7-yl)-2-(1-oxo-2,7-diazaspiro[3.5]nonan-7-yl)thiazolo[4,5-b]pyridin-5-yl)ethyl)acetamide]",9.9
4,"Cn1nc(NS(C)(=O)=O)c2cccc(-c3cc4sc(N5CCNCC5)nc4nc3[C@H](Cc3cc(F)cc(F)c3)NC(=O)Cn3nc(C(F)(F)F)c4c3C(F)(F)[C@@H]3C[C@H]43)c21 [Example 86, 2-((3bS,4aR)-5,5-difluoro-3-(trifluoromethyl)-3b,4,4a,5-tetrahydro-1H-cyclopropa[3,4]cyclopenta[1,2-c]pyrazol-1-yl)-N—((S)-2-(3,5-difluorophenyl)-1-(6-(1-methyl-3-(methylsulfonamido)-1H-indazol-7-yl)-2-(piperazin-1-yl)thiazolo[4,5-b]pyridin-5-yl)ethyl)acetamide]",15.3
5,"C[C@H]1CN(c2nc3nc([C@H](Cc4cc(F)cc(F)c4)NC(=O)Cn4nc(C(F)(F)F)c5c4C(F)(F)[C@@H]4C[C@H]54)c(-c4cccc5c(NS(C)(=O)=O)nn(C)c45)cc3s2)CCN1 [Example 88, 2-((3bS,4aR)-5,5-difluoro-3-(trifluoromethyl)-3b,4,4a,5-tetrahydro-1H-cyclopropa[3,4]cyclopenta[1,2-c]pyrazol-1-yl)-N—((S)-2-(3,5-difluorophenyl)-1-(6-(1-methyl-3-(methylsulfonamido)-1H-indazol-7-yl)-2-((S)-3-methylpiperazin-1-yl)thiazolo[4,5-b]pyridin-5-yl)ethyl)acetamide]",10.3
6,"C[C@@H]1CN(c2nc3nc([C@H](Cc4cc(F)cc(F)c4)NC(=O)Cn4nc(C(F)(F)F)c5c4C(F)(F)[C@@H]4C[C@H]54)c(-c4cccc5c(NS(C)(=O)=O)nn(C)c45)cc3s2)CCN1 [Example 89, 2-((3bS,4aR)-5,5-difluoro-3-(trifluoromethyl)-3b,4,4a,5-tetrahydro-1H-cyclopropa[3,4]cyclopenta[1,2-c]pyrazol-1-yl)-N—((S)-2-(3,5-difluorophenyl)-1-(6-(1-methyl-3-(methylsulfonamido)-1H-indazol-7-yl)-2-((R)-3-methylpiperazin-1-yl)thiazolo[4,5-b]pyridin-5-yl)ethyl)acetamide]",11.3
7,"Cn1nc(NS(C)(=O)=O)c2cccc(-c3cc4sc(N5CCC6(CC5)CNC6)nc4nc3[C@H](Cc3cc(F)cc(F)c3)NC(=O)Cn3nc(C(F)(F)F)c4c3C(F)(F)[C@@H]3C[C@H]43)c21 [Example 90, 2-((3bS,4aR)-5,5-difluoro-3-(trifluoromethyl)-3b,4,4a,5-tetrahydro-1H-cyclopropa[3,4]cyclopenta[1,2-c]pyrazol-1-yl)-N—((S)-2-(3,5-difluorophenyl)-1-(6-(1-methyl-3-(methylsulfonamido)-1H-indazol-7-yl)-2-(2,7-diazaspiro[3.5]nonan-7-yl)thiazolo[4,5-b]pyridin-5-yl)ethyl)acetamide]",431
8,"Cn1nc(NS(C)(=O)=O)c2cccc(-c3cc4sc(N5CC6(CCNCC6)C5)nc4nc3[C@H](Cc3cc(F)cc(F)c3)NC(=O)Cn3nc(C(F)(F)F)c4c3C(F)(F)[C@@H]3C[C@H]43)c21 [Example 91, 2-((3bS,4aR)-5,5-difluoro-3-(trifluoromethyl)-3b,4,4a,5-tetrahydro-1H-cyclopropa[3,4]cyclopenta[1,2-c]pyrazol-1-yl)-N—((S)-2-(3,5-difluorophenyl)-1-(6-(1-methyl-3-(methylsulfonamido)-1H-indazol-7-yl)-2-(2,7-diazaspiro[3.5]nonan-2-yl)thiazolo[4,5-b]pyridin-5-yl)ethyl)acetamide]",64.9
9,"Cn1nc(NS(C)(=O)=O)c2cccc(-c3cc4[nH]c(-c5ccccc5)nc4nc3[C@H](Cc3cc(F)cc(F)c3)NC(=O)Cn3nc(C(F)F)c4c3C(F)(F)[C@@H]3C[C@H]43)c21 [Example 95, 2-((3bS,4aR)-3-(difluoromethyl)-5,5-difluoro-3b,4,4a,5-tetrahydro-1H-cyclopropa[3,4]cyclopenta[1,2-c]pyrazol-1-yl)-N—((S)-2-(3,5-difluorophenyl)-1-(6-(1-methyl-3-(methylsulfonamido)-1H-indazol-7-yl)-2-phenyl-1H-imidazo[4,5-b]pyridin-5-yl)ethyl)acetamide]",67.5
